Literature values, collected in patent publication US20060217894A1, “Use of computationally derived protein structures of genetic polymorphisms in pharmacogenomics for drug design and clinical applications” (priority 1999, published 2006).

Target: NS3 protease (Hepatitis C virus genotype 1b, UniProt P26663)
Settings: values obtained from literature (Ingallinella et al. 1998)

Sequence of NS3 protease (P26663 1027-1657, other chains not shown): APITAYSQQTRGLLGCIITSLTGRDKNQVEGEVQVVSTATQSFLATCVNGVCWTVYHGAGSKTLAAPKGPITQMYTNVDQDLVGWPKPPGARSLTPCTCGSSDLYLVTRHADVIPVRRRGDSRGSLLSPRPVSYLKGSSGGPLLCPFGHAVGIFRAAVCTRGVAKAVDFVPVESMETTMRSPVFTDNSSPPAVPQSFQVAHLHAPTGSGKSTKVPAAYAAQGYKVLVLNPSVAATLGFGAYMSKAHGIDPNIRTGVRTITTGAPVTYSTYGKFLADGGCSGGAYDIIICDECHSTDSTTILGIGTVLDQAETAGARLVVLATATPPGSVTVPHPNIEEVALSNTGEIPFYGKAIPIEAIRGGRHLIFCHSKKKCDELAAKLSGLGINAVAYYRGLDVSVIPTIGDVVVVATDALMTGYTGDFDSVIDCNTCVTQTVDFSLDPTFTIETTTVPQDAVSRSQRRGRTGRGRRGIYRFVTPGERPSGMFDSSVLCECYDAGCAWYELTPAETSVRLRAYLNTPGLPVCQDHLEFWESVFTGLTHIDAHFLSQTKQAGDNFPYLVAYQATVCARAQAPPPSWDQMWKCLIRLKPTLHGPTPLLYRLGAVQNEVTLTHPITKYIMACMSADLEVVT

Row | Substance | IC50 [nM]
1 | Ac-Asp^1-L-Glu^2-Leu^3-Ile^4-Cha^5-Cys^6-COO- | 60
2 | Ac-Asp^1-D-Glu^2-Leu^3-Ile^4-Cha^5-Cys^6-COO- | 15
